ChEMBL document CHEMBL1201862, “PubChem BioAssay data set” (2004)
The source made the active and inactive calls.

Assays:
[1] = Trypanosoma cruzi growth suppression in host cells – NIH3T3 host cells, beta-gal luminescence, confirmation (AID 2044); format: functional, cell-based;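 further: intracellular parasites grown in NIH/3T3 mouse fibroblasts as host cells; luminescent beta-galactosidase reporter signal from transgenic T. cruzi replicating inside host cells; inhibitors lower the luminescence signal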
[2] = cells
[3] = NIH3T3 cell viability loss – ATP luminescence, mouse fibroblasts, counter-screen, dose response (AID 2010); format: functional, cell-based;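 further: cells exposed to compound for about 90 hours before reading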
[4] = molecular target: Beta-2 adrenergic receptor (Homo sapiens, UniProt P07550); test: ADRB2 activation measured by internalization – cell-based, FAP fluorogen, flow cytometry, cherry pick 1, dose response (AID 588763); format: functional
[5] = molecular target: Cytochrome P450 3A4 (Homo sapiens, UniProt P08684); conditions: Potency;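 further: confirmatory qHTS run detecting inhibitors and substrates of CYP3A4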
[6] = molecular target: Voltage-gated inwardly rectifying potassium channel KCNH2 (Homo sapiens, UniProt Q12809); conditions: Potency;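 further: confirmatory quantitative high-throughput screen measuring inhibition of hERG channel activity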
[7] = molecular target: T1, Voltage-gated N-type calcium channel alpha-1B subunit/Amyloid beta A4 precursor protein-binding family A member 1 (Homo sapiens, UniProt Q00975+Q02410); format: protein assay
[8] = molecular target: T1, Voltage-gated N-type calcium channel alpha-1B subunit/Amyloid beta A4 precursor protein-binding family A member 1; format: protein assay; remark: listed apart in the source
[9] = molecular target: T2, Histone-lysine N-methyltransferase NSD2 (Homo sapiens, UniProt O96028); format: biochemical
T2 sequence (O96028 whole entry): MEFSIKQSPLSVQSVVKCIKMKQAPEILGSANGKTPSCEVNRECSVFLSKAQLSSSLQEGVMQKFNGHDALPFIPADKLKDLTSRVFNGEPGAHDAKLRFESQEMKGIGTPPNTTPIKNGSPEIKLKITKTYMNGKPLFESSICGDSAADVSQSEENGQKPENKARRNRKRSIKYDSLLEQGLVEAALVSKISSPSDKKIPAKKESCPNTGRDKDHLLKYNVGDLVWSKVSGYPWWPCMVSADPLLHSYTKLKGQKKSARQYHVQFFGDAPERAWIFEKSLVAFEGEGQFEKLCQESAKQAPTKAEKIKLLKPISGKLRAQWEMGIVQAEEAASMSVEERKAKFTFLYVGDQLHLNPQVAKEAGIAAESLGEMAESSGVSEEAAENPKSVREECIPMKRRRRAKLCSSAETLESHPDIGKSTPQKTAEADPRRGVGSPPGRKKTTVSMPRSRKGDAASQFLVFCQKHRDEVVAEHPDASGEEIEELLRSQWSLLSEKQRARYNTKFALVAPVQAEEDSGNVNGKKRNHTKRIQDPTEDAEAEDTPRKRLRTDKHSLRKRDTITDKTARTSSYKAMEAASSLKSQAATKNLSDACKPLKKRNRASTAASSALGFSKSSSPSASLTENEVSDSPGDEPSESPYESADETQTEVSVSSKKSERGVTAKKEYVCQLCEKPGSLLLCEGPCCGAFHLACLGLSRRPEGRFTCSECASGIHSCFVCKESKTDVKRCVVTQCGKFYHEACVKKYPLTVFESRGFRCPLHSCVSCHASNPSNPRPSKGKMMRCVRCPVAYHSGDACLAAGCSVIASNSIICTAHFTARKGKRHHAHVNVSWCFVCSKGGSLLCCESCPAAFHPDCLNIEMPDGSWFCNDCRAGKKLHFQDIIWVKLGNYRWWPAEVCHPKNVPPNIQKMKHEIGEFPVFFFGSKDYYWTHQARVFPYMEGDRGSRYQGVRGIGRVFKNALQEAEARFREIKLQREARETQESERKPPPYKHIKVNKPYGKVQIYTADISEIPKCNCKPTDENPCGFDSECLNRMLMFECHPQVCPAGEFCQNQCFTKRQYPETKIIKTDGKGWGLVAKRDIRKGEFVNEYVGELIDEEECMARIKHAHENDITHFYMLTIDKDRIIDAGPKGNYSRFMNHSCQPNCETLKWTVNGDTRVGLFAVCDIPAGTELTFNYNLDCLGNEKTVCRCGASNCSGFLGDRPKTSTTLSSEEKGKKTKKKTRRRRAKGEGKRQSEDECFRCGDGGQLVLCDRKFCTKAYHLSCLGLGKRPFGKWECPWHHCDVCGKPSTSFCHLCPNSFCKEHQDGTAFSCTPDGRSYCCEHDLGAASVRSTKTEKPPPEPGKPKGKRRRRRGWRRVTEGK

[10] = molecular target: Nonstructural protein 1 (Influenza A virus, UniProt Q194T2); format: functional, Influenza A virus (A/California/07/2009(H1N1))
[11] = A cytotoxicity screen of small molecule inhibitors of the PhoP region in Salmonella typhi identified in the primary screen. [Related pubchem assays: 1850, 1864, 1985 ]; format: functional
[12] = test system: HEK293; test: cells; format: functional, cell-based; conditions: Homo sapiens
[13] = test system: HEK293; test: NOD2 signaling inhibitors in MDP-stimulated cells, cell-based, uHTS, luminescence (AID 2001); format: functional; conditions: Homo sapiens
[14] = test system: HEK293; test: cells; format: functional, cell-based; conditions: Homo sapiens; remark: listed apart in the source
[15] = test system: HEK293; test: inhibition of NOD1-driven NF-kB reporter – cell-based, luminescence, uHTS, primary screen (AID 1578); format: functional; conditions: Homo sapiens
[16] = molecular target: T3, Adenosylmethionine-8-amino-7-oxononanoate aminotransferase (Mycobacterium tuberculosis, UniProt P9WQ81); test: Mycobacterium tuberculosis BioA enzyme inhibitor Measured in Biochemical System Using Plate Reader - 2163-02_Inhibitor_Dose_CherryPick_Activity.; format: functional, Mycobacterium tuberculosis UT205
T3 sequence (P9WQ81 whole entry): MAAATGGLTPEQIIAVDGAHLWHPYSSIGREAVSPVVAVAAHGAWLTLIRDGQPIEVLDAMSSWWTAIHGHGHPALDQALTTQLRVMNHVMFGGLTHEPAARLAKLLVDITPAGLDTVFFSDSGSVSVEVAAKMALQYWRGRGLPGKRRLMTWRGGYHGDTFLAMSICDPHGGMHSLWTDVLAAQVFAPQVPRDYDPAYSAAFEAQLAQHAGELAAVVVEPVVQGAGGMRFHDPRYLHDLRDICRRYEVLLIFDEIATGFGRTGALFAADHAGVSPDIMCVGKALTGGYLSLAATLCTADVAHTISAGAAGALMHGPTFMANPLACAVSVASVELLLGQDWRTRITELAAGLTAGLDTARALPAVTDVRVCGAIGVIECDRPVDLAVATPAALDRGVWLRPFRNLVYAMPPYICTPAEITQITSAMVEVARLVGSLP

[17] = molecular target: T4, DNA repair protein RAD52 homolog (Homo sapiens, UniProt P43351); format: functional, biochemical
T4 sequence (P43351 whole entry): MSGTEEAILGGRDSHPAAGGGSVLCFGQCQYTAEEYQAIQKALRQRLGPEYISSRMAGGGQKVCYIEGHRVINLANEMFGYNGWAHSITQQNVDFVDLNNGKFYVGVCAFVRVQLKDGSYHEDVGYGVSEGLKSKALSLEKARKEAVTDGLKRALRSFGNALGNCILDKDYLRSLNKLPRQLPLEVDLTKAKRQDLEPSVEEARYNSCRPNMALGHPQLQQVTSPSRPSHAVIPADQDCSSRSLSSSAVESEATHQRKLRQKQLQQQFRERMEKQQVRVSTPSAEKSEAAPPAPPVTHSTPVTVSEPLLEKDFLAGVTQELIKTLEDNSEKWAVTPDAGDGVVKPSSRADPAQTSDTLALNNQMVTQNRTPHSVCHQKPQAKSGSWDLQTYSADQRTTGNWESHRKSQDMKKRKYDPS

[18] = IGROV1 cell killing – plate reader, dry powder samples, PAX8 inhibitor project, dose response (AID 743043); format: functional, cell-based; conditions: IGROV-1
[19] = OVCAR-3 cell viability loss – plate reader, dry powder samples, PAX8 inhibitor project, dose response (AID 743044); format: functional, cell-based
[20] = OVCAR8 cell viability loss – plate reader, dry powder samples, PAX8 project, dose response (AID 743197); format: functional, cell-based; conditions: OVCAR-8
[21] = molecular target: Paired box protein Pax-8 (Homo sapiens, UniProt Q06710); test: PAX8 transcriptional activity inhibition in RMG-I – RMG-I cells, luciferase, cherry-pick, dose response (AID 687027); format: functional, cell-based;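 further: luciferase reporter driven by Pax8 target thyroperoxidase promoter measured by SteadyGlo luminescence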
[22] = molecular target: Dual specificity tyrosine-phosphorylation-regulated kinase 1A (Rattus norvegicus, UniProt Q63470); format: biochemical, Homo sapiens
[23] = fluconazole-exposed Candida albicans growth modulators – fluorescence, retest, confirmation (AID 2467); format: functional, cell-based
[24] = NIH-3T3 fibroblast cytotoxicity, dose response, cytotoxicity control, cell-based, fluorescence, Alamar Blue, secondary assay (AID 2327); format: functional;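 further: NIH-3T3 mouse fibroblasts cultured with fluconazole at 8 µg/mL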

Sequence of Voltage-gated inwardly rectifying potassium channel KCNH2 (Q12809 whole entry): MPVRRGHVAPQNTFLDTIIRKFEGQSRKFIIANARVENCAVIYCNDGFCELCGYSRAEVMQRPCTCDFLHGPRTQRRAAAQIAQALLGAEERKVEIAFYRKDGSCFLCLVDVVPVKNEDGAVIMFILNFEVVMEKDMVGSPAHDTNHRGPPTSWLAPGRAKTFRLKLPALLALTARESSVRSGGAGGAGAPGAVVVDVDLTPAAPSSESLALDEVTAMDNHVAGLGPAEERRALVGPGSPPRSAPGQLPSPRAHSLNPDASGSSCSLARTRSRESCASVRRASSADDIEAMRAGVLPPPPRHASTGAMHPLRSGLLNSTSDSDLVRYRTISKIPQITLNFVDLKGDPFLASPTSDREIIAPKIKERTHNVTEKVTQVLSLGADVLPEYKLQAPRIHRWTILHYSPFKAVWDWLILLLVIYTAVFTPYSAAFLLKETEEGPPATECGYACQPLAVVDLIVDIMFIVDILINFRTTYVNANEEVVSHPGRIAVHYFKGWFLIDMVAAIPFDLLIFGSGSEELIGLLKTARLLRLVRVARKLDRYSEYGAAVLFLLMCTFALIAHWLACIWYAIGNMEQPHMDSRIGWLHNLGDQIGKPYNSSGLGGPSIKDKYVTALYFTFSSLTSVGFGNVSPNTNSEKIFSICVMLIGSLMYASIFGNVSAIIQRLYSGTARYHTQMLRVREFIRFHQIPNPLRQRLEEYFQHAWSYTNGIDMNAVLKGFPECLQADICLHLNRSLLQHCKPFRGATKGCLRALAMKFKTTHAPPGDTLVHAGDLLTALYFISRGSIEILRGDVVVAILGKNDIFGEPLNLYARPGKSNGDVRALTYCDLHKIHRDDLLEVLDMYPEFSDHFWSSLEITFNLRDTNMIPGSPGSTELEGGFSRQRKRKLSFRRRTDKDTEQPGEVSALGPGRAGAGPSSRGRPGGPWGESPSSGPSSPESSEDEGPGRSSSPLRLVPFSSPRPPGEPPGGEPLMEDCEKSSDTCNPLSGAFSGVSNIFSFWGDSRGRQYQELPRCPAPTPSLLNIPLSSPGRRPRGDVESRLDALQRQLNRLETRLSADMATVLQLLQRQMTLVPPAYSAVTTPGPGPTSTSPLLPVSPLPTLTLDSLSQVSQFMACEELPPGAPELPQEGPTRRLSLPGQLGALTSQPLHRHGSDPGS
Sequence of Cytochrome P450 3A4 (P08684 whole entry): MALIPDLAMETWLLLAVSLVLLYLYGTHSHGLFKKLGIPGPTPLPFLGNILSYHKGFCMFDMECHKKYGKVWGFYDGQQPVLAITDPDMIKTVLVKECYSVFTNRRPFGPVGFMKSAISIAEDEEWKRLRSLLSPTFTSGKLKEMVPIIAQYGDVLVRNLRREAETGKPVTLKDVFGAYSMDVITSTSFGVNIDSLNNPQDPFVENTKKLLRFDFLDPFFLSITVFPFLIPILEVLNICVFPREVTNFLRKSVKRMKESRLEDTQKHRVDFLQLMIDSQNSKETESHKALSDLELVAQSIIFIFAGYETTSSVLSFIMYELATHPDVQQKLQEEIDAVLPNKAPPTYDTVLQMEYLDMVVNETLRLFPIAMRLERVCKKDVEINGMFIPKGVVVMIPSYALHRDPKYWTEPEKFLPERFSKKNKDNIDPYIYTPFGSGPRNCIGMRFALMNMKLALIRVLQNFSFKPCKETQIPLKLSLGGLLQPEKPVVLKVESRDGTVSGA
Sequence of Paired box protein Pax-8 (Q06710 whole entry): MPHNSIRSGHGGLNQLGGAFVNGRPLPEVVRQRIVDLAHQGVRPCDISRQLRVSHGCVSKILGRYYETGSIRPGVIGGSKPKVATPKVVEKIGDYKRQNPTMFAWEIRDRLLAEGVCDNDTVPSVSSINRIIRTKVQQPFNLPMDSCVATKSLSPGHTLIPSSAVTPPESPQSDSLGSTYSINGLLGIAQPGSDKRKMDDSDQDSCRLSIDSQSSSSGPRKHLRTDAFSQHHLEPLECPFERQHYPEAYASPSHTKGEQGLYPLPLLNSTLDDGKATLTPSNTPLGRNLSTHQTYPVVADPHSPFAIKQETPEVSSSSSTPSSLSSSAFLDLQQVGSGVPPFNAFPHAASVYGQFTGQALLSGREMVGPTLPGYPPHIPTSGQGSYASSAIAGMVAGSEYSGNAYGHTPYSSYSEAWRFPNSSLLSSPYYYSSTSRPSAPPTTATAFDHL
Sequence of Beta-2 adrenergic receptor (P07550 whole entry): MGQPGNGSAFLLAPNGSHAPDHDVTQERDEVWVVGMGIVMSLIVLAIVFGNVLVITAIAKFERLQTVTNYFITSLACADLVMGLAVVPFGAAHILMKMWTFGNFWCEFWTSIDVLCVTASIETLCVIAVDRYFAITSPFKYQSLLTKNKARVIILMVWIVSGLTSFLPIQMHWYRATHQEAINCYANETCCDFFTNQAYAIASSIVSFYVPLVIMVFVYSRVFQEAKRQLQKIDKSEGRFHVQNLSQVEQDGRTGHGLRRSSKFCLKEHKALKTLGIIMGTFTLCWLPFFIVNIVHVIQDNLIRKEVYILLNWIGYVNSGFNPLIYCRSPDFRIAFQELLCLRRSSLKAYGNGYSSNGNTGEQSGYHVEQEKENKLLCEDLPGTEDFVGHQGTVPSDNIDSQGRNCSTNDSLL
Sequence of Nonstructural protein 1 (Q194T2 whole entry): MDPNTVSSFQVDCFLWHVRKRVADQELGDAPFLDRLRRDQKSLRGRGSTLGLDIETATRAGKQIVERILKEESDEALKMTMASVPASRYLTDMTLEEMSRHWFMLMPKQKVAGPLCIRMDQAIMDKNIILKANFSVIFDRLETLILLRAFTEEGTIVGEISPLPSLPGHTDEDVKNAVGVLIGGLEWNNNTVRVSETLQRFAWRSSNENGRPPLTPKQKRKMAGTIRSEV

Compound: CCOc1cc(CN2CCCC(CNC(=O)c3ccc(F)cc3)C2)ccc1OC (stereo not given)
- EC50 [1]: < 0.1 µM (active)
- EC50 [2]: 0.206 µM (active)
- EC50 [3]: > 30 µM (not active)

Compound: CCOc1ccc(NC(=O)CNC(=O)c2nn(-c3ccc(OC)c(OC)c3)c(=O)c3ccccc23)cc1
- EC50 [4]: 6.57 µM (active)

Compound: Cc1cc([N+](=O)[O-])ccc1N
- AC50 [5]: 39.8 µM (inconclusive)
- AC50 [6]: 17.8 µM (inconclusive)

Compound: Cc1ccc(-c2cc(C(=O)N3CC(C)CC(C)C3)c3ccccc3n2)o1 (stereo not given)
- IC50 [7]: 11.3 µM (active)
- IC50 [8]: 5.42 µM (active)

Compound: COC(=O)C1CCN(C2=C(NS(=O)(=O)c3ccc(Cl)cc3)C(=O)c3ccccc3C2=O)CC1
- AC50 [9]: 13.1 µM (active)
- IC50 [10]: 27.4 µM (active)

Compound: Cc1ccccc1Cn1c(=O)n(CCCC(=O)NCc2ccco2)c(=O)c2ccccc21
- EC50 [11]: > 50 µM (active)

Compound: CC(=O)Nc1ccc(C(=O)CCl)cc1
- AC50 [6]: 28.2 µM (inconclusive)

Compound: O=C(Nc1cccc(F)c1)NC1CCCCC1
- EC50 [11]: > 50 µM (active)

Compound: CC(C)c1ccc(S(=O)(=O)c2cc3cc(Br)ccc3oc2=O)cc1
- IC50 [12]: 10.5 µM (active)
- IC50 [13]: 3.73 µM (active)
- IC50 [14]: 3.29 µM (active)
- EC50 [15]: > 20 µM (inactive)

Compound: Cc1ccc(NC(=O)CC2=NC(=O)C(CC(=O)Nc3ccccc3F)S2)cc1 (stereo not given)
- AC50 [9]: 19.1 µM (active)

Compound: CCCCCOC(=O)c1ccccc1C(=O)OCCCCC
- AC50 [5]: 12.6 µM (inconclusive)
- AC50 [6]: 39.8 µM (inconclusive)

Compound: COc1ccccc1CNC(=O)Cn1c(=O)oc2cc(S(=O)(=O)N3CCCC3)ccc21
- EC50 [11]: > 50 µM (active)

Compound: O=C(Nc1cccnc1)c1ccc(N2CCCC2)c([N+](=O)[O-])c1
- AC50 [16]: 1.19 µM (active)

Compound: COc1ccc(C2CC(=O)N(CCCN(C)CCc3ccc(OC)c(OC)c3)C2)cc1 (stereo not given)
- EC50 [1]: < 0.1 µM (active)
- EC50 [2]: 0.02 µM (active)
- EC50 [3]: > 60 µM (not active)

Compound: Cc1c(CN(C)C)c2c(n1Cc1ccccc1)C(=O)c1ccccc1-2
- AC50 [9]: 8.45 µM (active)

Compound: COC(=O)C1=C(c2cccc(OCc3ccccc3)c2)C[C@@H]2CC[C@H]1N2C(=O)NCc1cccc(F)c1
- EC50 [4]: 4.8 µM (active)

Compound: COc1cc2c3cc1Oc1cc(ccc1O)C[C@@H]1c4c(cc(OC)c(O)c4Oc4cccc(c4)C[C@@H]3N(C)CC2)CC[N+]1(C)C
- AC50 [17]: 8.2 µM (active)
- AC50 [16]: 15.4 µM (active)

Compound: CN(C)C(=O)C[C@@H]1C[C@@H]2c3cc(NC(=O)c4cccnc4)ccc3O[C@@H]2[C@@H](CO)O1
- AC50 [16]: 12.7 µM (active)

Compound: CCC(=O)N1CC[C@@H]2[C@H]1c1cc(-c3cccc(F)c3)ccc1N(C)[C@H]2CO
- AC50 [16]: 5.53 µM (active)

Compound: C[C@@H]1CN([C@H](C)CO)C(=O)c2cc(NS(=O)(=O)c3ccc(F)cc3)ccc2O[C@@H](C)CCCCO[C@H]1CN(C)Cc1ccc(C(F)(F)F)cc1
- AC50 [18]: 55.1 µM (active)
- AC50 [19]: 7.81 µM (active)
- AC50 [20]: 33.9 µM (active)
- AC50 [21]: 5.54 µM (active)

Compound: CC(C)CC#Cc1ccc2c(c1)O[C@@H](CN(C)S(=O)(=O)c1ccc(F)cc1)[C@@H](C)CN([C@@H](C)CO)S2(=O)=O
- AC50 [18]: 51.5 µM (active)
- AC50 [19]: 25.9 µM (active)
- AC50 [20]: > 70 µM (inactive)
- AC50 [21]: 12.9 µM (active)

Compound: C[C@H]1CCCCO[C@H](CN(C)C(=O)Nc2cccc3ccccc23)[C@@H](C)CN([C@@H](C)CO)C(=O)c2cc(NS(=O)(=O)c3ccc(F)cc3)ccc2O1
- AC50 [18]: 33.8 µM (active)
- AC50 [20]: > 70 µM (inactive)
- AC50 [21]: 5.88 µM (active)

Compound: COc1ccc2cc(C(=O)N/N=C/c3cc(OC)c(OC)c(OC)c3)[nH]c2c1
- AC50 [22]: 3.83 µM (active)

Compound: C/C(CC(C)(C)C1CCCCC1)=N\NC(N)=S
- EC50 [1]: < 0.1 µM (active)
- EC50 [2]: 0.133 µM (active)
- EC50 [23]: 2.9 µM (active)
- EC50 [24]: 2.86 µM (inconclusive)

Compound: COC(=O)c1c(C)[nH]c(C)c1C(=O)c1ccccc1Cc1ccccc1
- AC50 [6]: 35.5 µM (inconclusive)

Compound: CC1(C)CC23C(=O)CCC(O)C2(C)CCC13 (stereo not given) [3-NOR-3-OXOPANASINSAN-6-OL]
- AC50 [5]: 15.8 µM (inconclusive)

Compound: CC(C)=CCc1c2c(c(O)c3c(=O)c(O)c(-c4ccccc4)oc13)C=CC(C)(C)O2 [SERICETIN]
- AC50 [5]: 15.8 µM (inconclusive)
